Laboratory results published in patent EP4491627A1, “SYNTHETIC CA[…] ON CHROMENO[…] AND USE THEREOF” (Consejo Superior De Investigaciones Científicas, priority 2023, dated 2025).

Tested on: primary neuronal cultures
Experiment: cAMP assay in primary neuronal cultures
Assay type: cell-based, Sprague Dawley rats
Settings: primary cultures of cortical neurons; Figure 5
Method: • Fig. 1. Graphics of the dose-response corresponding to the HTFR (Homogeneous Time Resolved Fluorescence) assays performed with chromenopyrimidines Example 1, Example 2 and Example 3. A) Competition assay snap-CB1; red ligand used at 100 nM; B) Competition assay snap-CB2; red ligand used at 20 nM. • Fig. 2. cAMP (Cyclic adenosine monophosphate) experiments performed with novel chromenopyrimidines (Example 1, Example 2 and Example 3). A) In HEK293 cells transfected with CB1; B) In HEK293 cells transfected with CB2. • Fig. 3. Graphics of the dose-response corresponding to the MAPK (mitogen-activated protein kinase) experiments performed with novel chromenopyrimidines (Example 1, Example 2 and Example 3). A) In HEK293 cells transfected with CB1; B) In HEK293 cells transfected with CB2. • Fig. 4. Graphics of the dose-response corresponding to the β-arrestin2 recruitment assays performed with Example 1, Example 2 and Example 3. A) In HEK293 cells transfected with CB1; B) In HEK293 cells transfected with CB2. • Fig. 5. Graphics of the dose-response corresponding to the cAMP assays performed with Example 1, Example 2 and Example 3 in neurons. • Fig. 6. Graphics of the dose-response of reference cannabinoids ACEA and anandamide in cAMP and MAPK assays in HEK293-CB1 cells. • Fig. 7. […]
In the present invention, cannabinoid affinity was evaluated using Homogeneous Time Resolved Fluorescence (HTFR) binding assays. Cannabinoid activity was assessed using an array of functional assays including cAMP, MAPK and barrestin2 recruitment in CB1 and CB2 transfected HEK293 cells. […]
Two hours before initiating the experiment, HEK-293T cells medium was replaced by serum-starved DMEM medium. […] Readings were performed after 60 min incubation at 25°. Homogeneous time-resolved fluorescence energy transfer (HTRF) measures were performed using the Lance Ultra cAMP kit (PerkinElmer, Waltham, MA, USA). Fluorescence at 665 nm was analysed on a PHERAstar Flagship microplate reader equipped with an HTRF optical module (BMG Lab technologies, Offenburg, Germany). […]

Row | Compound | cannabinoid agonistic activity in primary neuronal cultures using cAMP assays
1 | CCCCCCC(C)(C)c1cc(OCc2ccccc2)c2c(c1)OC(C)(C)c1cncnc1-2 [Example 3, 10-Benzyloxy-8-(1,1-dimethylheptyl)-5,5-dimethylchromeno[4,3-d]pyrimidine] | cannabinoid agonistic activity
2 | CCCCCCC(C)(C)c1cc(OC)c2c(c1)OC(C)(C)c1cncnc1-2 [Example 2, 8-(1,1-Dimethylheptyl)-10-methoxy-5,5-dimethylchromeno[4,3-d]pyrimidine] | cannabinoid agonistic activity
3 | CCCCCCC(C)(C)c1cc(O)c2c(c1)OC(C)(C)c1cncnc1-2 [Example 1, 8-(1,1-Dimethylheptyl)-5,5-dimethylchromeno[4,3-d]pyrimidin-10-ol] | cannabinoid agonistic activity
